T1: Organic anion transporter 3 (Rattus norvegicus, UniProt Q9R1U7)
T1 sequence (Q9R1U7 whole entry): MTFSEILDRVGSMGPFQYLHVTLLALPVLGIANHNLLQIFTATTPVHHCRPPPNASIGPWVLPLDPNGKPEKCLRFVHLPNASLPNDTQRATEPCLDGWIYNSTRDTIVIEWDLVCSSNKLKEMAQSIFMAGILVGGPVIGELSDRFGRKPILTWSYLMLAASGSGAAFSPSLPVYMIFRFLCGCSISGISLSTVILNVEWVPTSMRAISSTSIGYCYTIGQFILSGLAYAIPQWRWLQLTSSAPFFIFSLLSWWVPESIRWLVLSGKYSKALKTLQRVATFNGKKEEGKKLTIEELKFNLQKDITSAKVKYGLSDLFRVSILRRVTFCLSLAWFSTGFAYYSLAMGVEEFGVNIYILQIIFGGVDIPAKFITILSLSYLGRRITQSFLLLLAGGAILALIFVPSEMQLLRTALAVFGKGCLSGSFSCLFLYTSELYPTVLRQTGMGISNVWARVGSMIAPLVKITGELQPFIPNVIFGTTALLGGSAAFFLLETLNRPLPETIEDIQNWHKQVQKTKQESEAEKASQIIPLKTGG

T2: Solute carrier family 22 member 6 (Rattus norvegicus, UniProt O35956)
T2 sequence (O35956 whole entry): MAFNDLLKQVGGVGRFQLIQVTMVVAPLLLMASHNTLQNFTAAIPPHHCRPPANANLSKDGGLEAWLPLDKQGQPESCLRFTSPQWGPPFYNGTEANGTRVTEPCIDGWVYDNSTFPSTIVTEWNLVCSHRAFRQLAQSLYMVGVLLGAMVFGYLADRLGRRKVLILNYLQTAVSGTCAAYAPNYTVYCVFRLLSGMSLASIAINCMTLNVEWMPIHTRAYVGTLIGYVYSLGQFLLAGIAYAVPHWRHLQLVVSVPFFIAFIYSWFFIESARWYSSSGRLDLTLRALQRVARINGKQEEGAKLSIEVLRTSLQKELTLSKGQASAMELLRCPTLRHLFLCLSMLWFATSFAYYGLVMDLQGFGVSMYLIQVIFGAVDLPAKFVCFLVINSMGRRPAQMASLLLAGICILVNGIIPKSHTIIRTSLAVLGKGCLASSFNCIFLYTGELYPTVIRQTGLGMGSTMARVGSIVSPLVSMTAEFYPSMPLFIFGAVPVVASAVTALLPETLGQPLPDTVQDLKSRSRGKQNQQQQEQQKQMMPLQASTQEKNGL


Key:
Format in all cases: functional, cell-based
[1] = biological target: T1, Organic anion transporter 3; assay: TP_TRANSPORTER: inhibition of PCG uptake in Oat3-expressing LLC-PK1 cells
[2] = biological target: T1, Organic anion transporter 3; assay: TP_TRANSPORTER: inhibition of PCG uptake in OAT3-expressing LLC-PK1 cells
[3] = biological target: T2, Solute carrier family 22 member 6; assay: TP_TRANSPORTER: inhibition of PAH uptake in Oat1-expressing LLC-PK1 cells
[4] = substrate: CC1(C)S[C@@H]2[C@H](NC(=O)Cc3ccccc3)C(=O)N2[C@H]1C(=O)O; assay: TP_TRANSPORTER: uptake in Oat3-expressing LLC-PK1 cells

| Molecule | Ki [1] [µM] | Ki [2] [µM] | Ki [3] [µM] | also measured |
| --- | --- | --- | --- | --- |
| CN/C(=N/CCSCc1nc[nH]c1C)NC#N [CIMETIDINE] | – | 46.8 | > 1000 | – |
| C[C@]12CC[C@@H]3c4ccc(O)cc4CC[C@H]3[C@@H]1CC[C@@H]2O[C@@H]1O[C@H](C(=O)O)[C@@H](O)[C@H](O)[C@H]1O [ESTRADIOL 17B GLUCURONIDE] | 35.6 | – | > 300 | – |
| C[C@]12CC[C@@H]3c4ccc(OS(=O)(=O)O)cc4CC[C@H]3[C@@H]1CCC2=O [ESTRONE SULFURIC ACID] | – | 9.1 | – | – |
| Organic anion transporter 3 (Rattus norvegicus) (protein) MTFSEILDRVGSMGPFQYLHVTLLALPVLGIANHNLLQIFTATTPVHHCRPPPNASIGPWVLPLDPNGKPEKCLRFVHLPNASLPNDTQRATEPCLDGWIYNSTRDTIVIEWDLVCSSNKLKEMAQSIFMAGILVGGPVIGELSDRFGRKPILTWSYLMLAASGSGAAFSPSLPVYMIFRFLCGCSISGISLSTVILNVEWVPTSMRAISSTSIGYCYTIGQFILSGLAYAIPQWRWLQLTSSAPFFIFSLLSWWVPESIRWLVLSGKYSKALKTLQRVATFNGKKEEGKKLTIEELKFNLQKDITSAKVKYGLSDLFRVSILRRVTFCLSLAWFSTGFAYYSLAMGVEEFGVNIYILQIIFGGVDIPAKFITILSLSYLGRRITQSFLLLLAGGAILALIFVPSEMQLLRTALAVFGKGCLSGSFSCLFLYTSELYPTVLRQTGMGISNVWARVGSMIAPLVKITGELQPFIPNVIFGTTALLGGSAAFFLLETLNRPLPETIEDIQNWHKQVQKTKQESEAEKASQIIPLKTGG | – | – | – | Km [4]: 82.6 µM |

Now from value to molecule, other results behind:

| Ki [1] [µM] | Molecule | Ki [2] [µM] | Ki [3] [µM] | also measured |
| --- | --- | --- | --- | --- |
| 398 | Nc1ccc(C(=O)NCC(=O)O)cc1 [AMINOHIPPURIC ACID] | – | – | – |
| 4.43 | CCCN(CCC)S(=O)(=O)c1ccc(C(=O)O)cc1 [PROBENECID] | – | – | – |

— ChEMBL document CHEMBL2074102, “Expression and functional characterization of rat organic anion transporter 3 (rOat3) in the choroid plexus” (Mol Pharmacol, 2002)
